Assay results as given in patent US8202865B2, “Oxadiazole derivatives” (Merck Serono SA, priority 2007, dated 2012).
Counter-ions that a name gives are not always drawn.

Tests used:
S1P3 = molecular target: T1, S1P3 (Homo sapiens, UniProt Q99500); experiment: 35S-GTPγS binding, S1P3 membranes; type: biochemical; details: membranes from CHO cells expressing S1P3; 60 min 30° C.
T1 construct: expressed in transfected cells; host or cells: CHO cells (membranes)
Description: Receptor binding assay: Membranes were prepared from CHO cells expressing S1P1 or S1P3 for use in ligand and […] binding studies. Cells were suspended in 50 mM TRIS, pH 7.4, 2 mM EDTA, 250 mM Sucrose (buffer A) and 1× Complete protease inhibitor cocktail (Roche), and disrupted at 4° C. by N2 decompression using a cell disruption bomb (Parr Instrument). Following centrifugation at 1000 RPM for 10 min at 4° C., the supernatant was suspended in buffer A and centrifuged again at 19000 RPM for 60 min at 4° C. The pellet was then suspended in 10 mM HEPES, pH 7.4, 1 mM EDTA, 250 mM Sucrose (Buffer B), and 1× Complete EDTA-free protease inhibitor cocktail and homogenized using a potter. Membranes were flash frozen in liquid N2 and stored at −80° C. [33P]sphingosine 1-phosphate (3000 Ci/mmol; American Radiolabeled Chemicals, Inc.) was added to test compounds in DMSO. Membranes and WGA SPA beads (GE Healthcare) were added to give a final volume of 100 μl in 96-well plates with assay concentrations of 25 pM or 10 pM [33P]sphingosine 1-phosphate (respectively for S1P1 or S1P3), 50 mM HEPES, pH 7.5, 5 mM MgCl2, 100 mM NaCl, 0.4% fatty acid-free BSA, 1-5 μg/well of proteins and 100 μg/well of WGA SPA beads. Binding was performed for 60 min at RT on a shaker and bound radioactivity was measured on a PerkinElmer 1450 MicroBeta counter. Specific binding was calculated by subtracting remaining radioactivity in the presence of 1000-fold excess of unlabeled S1P. Binding data were analyzed using the GraphPad Prism program.
Measurements of ^35S-GTPγS Binding: Membranes (1 to 10 μg protein) prepared as described above, were incubated in 96-well Scintiplates (PerkinElmer) with test compounds diluted in DMSO, in 180 μl of 20 mM HEPES, pH 7.4, 10 mM MgCl2, 2 μg/well Saponin, 0.2% fatty acid free BSA (Assay buffer), 140 mM NaCl and 1.7 μM GDP. The assay was initiated with the addition of 20 μl of 1.5 nM [35S]-GTPγS (1100 Ci/mmol; GE Healthcare) in assay buffer. After 60 min incubation at 30° C. on a shaker, plates were centrifuged for 10 min at 2000 RPM. Supernatant was discarded and membrane bound radioactivity was measured on a PerkinElmer 1450 MicroBeta counter. Triplicate samples were averaged and expressed as % response relative to S1P activation in absence of compound (n=2).

S1P1 [1] = molecular target: T2, S1P1 (Homo sapiens, UniProt P21453); experiment: 35S-GTPγS binding, S1P1 membranes; type: biochemical; details: membranes from CHO cells expressing S1P1; 60 min 30° C.
T2 construct: expressed in transfected cells; host or cells: CHO cells (membranes)
Outline: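 CHO-cell membranes expressing S1P1 or S1P3 (1-10 μg) incubated with compounds in 20 mM HEPES pH 7.4, 10 mM MgCl2, 140 mM NaCl, saponin, 0.2% BSA, 1.7 μM GDP and [35S]-GTPγS (20 μl of 1.5 nM added), 60 min at 30° C. Bound radioactivity expressed as % of S1P activation.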

S1P1 [2] = molecular target: T2, S1P1; experiment: Receptor binding assay, [33P]sphingosine 1-phosphate, membranes, WGA SPA beads; details: membranes from CHO cells expressing S1P1; 25 pM [33P]S1P; 60 min RT
Outline: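 CHO-cell membranes expressing S1P1 incubated with 25 pM [33P]S1P in 50 mM HEPES pH 7.5, 5 mM MgCl2, 100 mM NaCl, 0.4% fatty acid-free BSA with WGA SPA beads for 60 min at RT. Bound radioactivity counted by scintillation proximity; specific binding defined using 1000-fold excess unlabeled S1P.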

T2 sequence (P21453 whole entry, species assumed): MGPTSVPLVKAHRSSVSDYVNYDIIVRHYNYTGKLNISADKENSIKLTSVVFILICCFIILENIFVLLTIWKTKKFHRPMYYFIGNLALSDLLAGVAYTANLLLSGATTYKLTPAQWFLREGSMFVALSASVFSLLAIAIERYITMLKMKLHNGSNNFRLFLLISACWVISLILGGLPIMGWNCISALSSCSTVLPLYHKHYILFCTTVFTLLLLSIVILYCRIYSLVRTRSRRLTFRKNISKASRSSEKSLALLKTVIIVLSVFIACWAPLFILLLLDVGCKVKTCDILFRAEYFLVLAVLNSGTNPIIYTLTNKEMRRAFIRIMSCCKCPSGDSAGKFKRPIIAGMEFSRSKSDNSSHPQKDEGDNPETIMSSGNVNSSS
T1 sequence (Q99500 whole entry, species assumed): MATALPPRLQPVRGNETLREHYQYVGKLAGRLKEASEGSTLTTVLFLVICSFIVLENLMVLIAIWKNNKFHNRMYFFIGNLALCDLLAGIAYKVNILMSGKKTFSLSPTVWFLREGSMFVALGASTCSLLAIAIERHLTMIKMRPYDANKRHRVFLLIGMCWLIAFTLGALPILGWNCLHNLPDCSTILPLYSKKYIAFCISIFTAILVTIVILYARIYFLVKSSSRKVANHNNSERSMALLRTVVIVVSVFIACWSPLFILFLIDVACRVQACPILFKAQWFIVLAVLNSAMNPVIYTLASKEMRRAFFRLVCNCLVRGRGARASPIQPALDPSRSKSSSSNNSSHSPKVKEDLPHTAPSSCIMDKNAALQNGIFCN

SMILES	EC50 (S1P3) [nM]	EC50 (S1P1 [1]) [nM]	Ki (S1P1 [2]) [nM]
COCc1cc(-c2nc(-c3cccc(CN(C)CC(=O)O)c3)no2)ccc1-c1ccccc1C [Example 141, N-(3-{5-[2-(methoxymethyl)-2′-methylbiphenyl-4-yl]-1,2,4-oxadiazol-3-yl}benzyl)-N-methylglycine, Hydrochloride salt]	621	0.85	1.4
CCOc1cc(-c2nc(-c3ccc(C(=O)O)c(F)c3)no2)ccc1-c1ccccc1C [Example 102, 4-[5-(2-ethoxy-2′-methylbiphenyl-4-yl)-1,2,4-oxadiazol-3-yl]-2-fluorobenzoic acid]	1760	58	11
COCc1cc(-c2nc(-c3ccc(C(=O)NCC(=O)O)c(F)c3)no2)ccc1-c1ccccc1C [Example 124, N-(2-fluoro-4-{5-[2-(methoxymethyl)-2′-methylbiphenyl-4-yl]-1,2,4-oxadiazol-3-yl}benzoyl)glycine]	1000	22	2
COCc1cc(-c2nc(-c3cccc(C(=O)NCCC#N)c3)no2)ccc1-c1ccccc1C [Example 183, N-(2-cyanoethyl)-3-{5-[2-(methoxymethyl)-2′-methylbiphenyl-4-yl]-1,2,4-oxadiazol-3-yl}benzamide]	5600	2.4	2
CCOC(=O)C1(NC(=O)c2ccc(-c3noc(-c4ccc(-c5ccccc5C)c(COC)c4)n3)cc2F)CC1 [Example 118, Ethyl 1-[(2-fluoro-4-{5-[2-(methoxymethyl)-2′-methylbiphenyl-4-yl]-1,2,4-oxadiazol-3-yl}benzoyl)amino]cyclopropanecarboxylate]	2160	7	2
CC1CCCCN1c1ccc(-c2nc(-c3ccc(C(=O)O)c(F)c3)no2)cc1NS(=O)(=O)N(C)C (stereo not drawn) [Example 73, 4-{5-[3-{[(dimethylamino)sulfonyl]amino}-4-(2-methylpiperidin-1-yl)phenyl]-1,2,4-oxadiazol-3-yl}-2-fluorobenzoic acid]	2000	122	213
Cc1ccccc1-c1ccc(-c2nc(-c3ccc(OCC(=O)O)c(F)c3)no2)cc1C [Example 48, {4-[5-(2,2′-dimethylbiphenyl-4-yl)-1,2,4-oxadiazol-3-yl]-2-fluorophenoxy}acetic acid]	17000	129	40
COCc1cc(-c2nc(-c3ccc(C(=O)O)c(F)c3)no2)ccc1N1CCCCC1C (stereo not drawn) [Example 114, 2-fluoro-4-{5-[3-(methoxymethyl)-4-(2-methylpiperidin-1-yl)phenyl]-1,2,4-oxadiazol-3-yl}benzoic acid]	2810	13	2.7

Next, values leading:

EC50 (S1P3) [nM]	EC50 (S1P1 [1]) [nM]	Ki (S1P1 [2]) [nM]	SMILES
2350	4	0.7	COCc1cc(-c2nc(-c3cccc(CN(C)CC(=O)O)c3)no2)ccc1OC(C)C [Example 148, N-(3-{5-[4-isopropoxy-3-(methoxymethyl)phenyl]-1,2,4-oxadiazol-3-yl}benzyl)-N-methylglycine, Hydrochloride salt]
175	4.8	6.5	COCc1cc(-c2nc(-c3cccc(CNC4(C(=O)O)CC4)c3)no2)ccc1-c1ccccc1C [Example 151, 1-[(3-{5-[2-(methoxymethyl)-2′-methylbiphenyl-4-yl]-1,2,4-oxadiazol-3-yl}benzyl)amino]cyclopropanecarboxylic acid]
767	286	182	Cc1ccccc1-c1ccc(-c2nc(-c3ccc(C(=O)O)c(F)c3)no2)cc1COC(C)C [Example 59, 2-fluoro-4-{5-[2-(isopropoxymethyl)-2′-methylbiphenyl-4-yl]-1,2,4-oxadiazol-3-yl}benzoic acid]
> 20000	417	524	Cc1ccccc1-c1ccc(-c2nc(-c3ccc(C(=O)O)c(F)c3)no2)cc1C(F)(F)F [Example 22, 2-fluoro-4-{5-[2′-methyl-2-(trifluoromethyl)biphenyl-4-yl]-1,2,4-oxadiazol-3-yl}benzoic acid]
